Laboratory results reported in patent US6211214A, “Biphenyl ether oxazolines and their use as pest-control agents” (Bayer Aktiengesellschaft, priority 1995, dated 2001).
Where two headings read alike, the source gives them in different places.

Tests used:
[1] = test system: caterpillars of the owlet moth (Spodoptera frugiperda); assay: Spodoptera frugiperda test (cabbage leaves dipped); format: in vivo; details: after 7 days, 0.1% active compound; for mortality at 0.1 % strength: Spodoptera frugiperda, 168 h, read-out: destruction
Method: Spodoptera Frugiperda-Test Solvent: 7 parts by weight of dimethylformamide Emulsifier: 1 part by weight of alkylaryl polyglycol ether To produce a suitable preparation of active compound, 1 part by weight of active compound is mixed with the stated amount of solvent and the stated amount of emulsifier, and the concentrate is diluted with water to the desired concentration. Cabbage leaves (Brassica oleracea) are treated by being dipped into the preparation of active compound of the desired concentration and are infested with caterpillars of the owlet moth (Spodoptera frugiperda), as long as the leaves are still moist.

[2] = test system: mustard beetle larvae (Phaedon cochleariae); assay: Phaedon larvae test (cabbage leaves dipped); format: in vivo; details: after 7 days, 0.01% active compound; for mortality at 0.01 % strength: Phaedon cochleariae, 168 h, read-out: destruction
Method: Phaedon Larvae Test Solvent: 7 parts by weight of dimethylformamide Emulsifier: 1 part by weight of alkylaryl polyglycol ether To produce a suitable preparation of active compound, 1 part by weight of active compound is mixed with the stated amount of solvent and the stated amount of emulsifier, and the concentrate is diluted with water to the desired concentration. Cabbage leaves (Brassica oleracea) are treated by being dipped into the preparation of the active compound of the desired concentration and are infested with mustard beetle larvae (Phaedon cochleariae), as long as the leaves are still moist.

[3] = log p (partition coefficient octanol/water, determined experimentally from reversed phase HPLC); format: physicochemical; details: for chromatographic logP: reversed phase hplc
Excerpt: [log p=logarithm of the partition coefficient p of the substance between the solvents octanol and water, determined experimentally from reversed phase HPLC]

[4] = test system: two-spotted spider mite (Tetranychus urticae); assay: Tetranychus test (OP-resistant/dipping treatment); format: in vivo; details: 312 h, read-out: destruction
Method: Tetranychus Test (OP-resistant/dipping treatment)
(§1) Solvent: 7 parts by weight of dimethylformamide
(§2) Emulsifier: 1 part by weight of alkylaryl polyglycol ether
To produce a suitable preparation of active compound, 1 part by weight of active compound is mixed with the stated amount of solvent and the stated amount of emulsifier, and the concentrate is diluted with emulsifier-containing water to the desired concentrations.
Bean plants (Phaseolus vulgaris) which are heavily infested with all stages of the two-spotted spider mite (Tetranychus urticae) are treated by being dipped into a preparation of the active compound of the desired concentration.
After the desired time, the effect in % is determined. 100% means that all the spider mites have been killed; 0% means that none of the spider mites have been killed.

[5] = test system: caterpillars of the diamond-back moth (Plutella maculipennis); assay: Plutella test (cabbage leaves dipped); format: in vivo; details: 168 h, after 7 days, 0.0001% active compound, read-out: destruction
Method: as §1, §2
To produce a suitable preparation of active compound, 1 part by weight of active compound is mixed with the stated amount of solvent and the stated amount of emulsifier, and the concentrate is diluted with water to the desired concentration.
Cabbage leaves (Brassica oleracea) are treated by being dipped into the preparation of active compound of the desired concentration and are infested with caterpillars of the diamond-back moth (Plutella maculipennis) while the leaves are still moist.
After the desired time, the destruction in % is determined. 100% means that all the caterpillars have been killed; 0% means that none of the caterpillars have been killed.

[6] = test system: green peach aphid (Myzus persicae); assay: Myzus test (infested broad bean seedlings dipped); format: in vivo; details: 144 h, after 6 days, 0.01% active compound, read-out: destruction
Method: as §1, §2
To produce a suitable preparation of active compound, 1 part by weight of active compound is mixed with the stated amount of solvent and the stated amount of emulsifier and the concentrate is diluted with water to the desired concentration.
Seedlings of broad beans (Vicia faba) infested by the green peach aphid (Myzus persicae) are dipped into the preparation of active compound of the desired concentration and placed in a plastic container.
After the desired time, the destruction in % is determined. 100% means that all the aphids have been killed; 0% means that none of the aphids has been killed.

Compound | chromatographic logP [3] | chromatographic logP ([3]; A isomer) | chromatographic logP ([3]; B isomer) | also measured
CCCC(C#N)Oc1ccc(-c2ccc(C3COC(c4c(F)cccc4F)=N3)cc2)cc1 (stereo not shown) [Example 21] | – | – | – | mortality at 0.1 % strength [1]: 100%; mortality at 0.01 % strength [2]: 100%
CC(C)(C)OC(=O)COc1ccc(-c2ccc(C3COC(c4c(F)cccc4F)=N3)cc2)cc1 (stereo not shown) [Example 10] | 4.43 | – | – | mortality at 0.1 % strength [1]: 100%
N#CCCCOc1ccc(-c2ccc(C3COC(c4c(F)cccc4F)=N3)cc2)cc1 (stereo not shown) [Example 14] | – | – | – | mortality at 0.1 % strength [1]: 100%; mortality at 0.01 % strength [2]: 100%
CON=C(COc1ccc(-c2ccc(C3COC(c4c(F)cccc4F)=N3)cc2)cc1)c1ccccc1 (stereo not shown) [Example 2] | 5.01 | – | – | mortality at 0.001 % strength [4]: 98%; mortality at 0.1 % strength [1]: 100%; mortality at 0.0001 % strength [5]: 100%; mortality at 0.01 % strength [2]: 100%
O=C(COc1ccc(-c2ccc(C3COC(c4c(F)cccc4F)=N3)cc2)cc1)c1ccccc1 (stereo not shown) [Example 1, 2-(2,6-difluorophenyl)-4-(4'-benzoylmethoxy-biphenyl-4-yl)-1,3-oxazoline] | – | – | – | mortality at 0.001 % strength [4]: 98%; mortality at 0.1 % strength [1]: 100%; mortality at 0.01 % strength [2]: 100%
COc1ccc(-c2ccc(C3COC(c4c(F)cccc4F)=N3)cc2)cc1 (stereo not shown) [(A), reference compound] | – | – | – | mortality at 0.001 % strength ([4]; after 13 days, 0.001% active compound): 45%; destruction [1]: no destruction; mortality at 0.0001 % strength [5]: 5%; destruction [2]: no destruction; mortality at 0.01 % strength [6]: 5%
COC(=O)C(Oc1ccc(-c2ccc(C3COC(c4c(F)cccc4F)=N3)cc2)cc1)C(C)C (stereo not shown) [Example 18] | 4.56 | – | – | mortality at 0.1 % strength [1]: 100%
CCOC(CCOc1ccc(-c2ccc(C3COC(c4c(F)cccc4F)=N3)cc2)cc1)OCC (stereo not shown) [Example 16] | 4.74 | – | – | mortality at 0.1 % strength [1]: 100%; mortality at 0.01 % strength [2]: 100%
CON=C(C)COc1ccc(-c2ccc(C3COC(c4c(F)cccc4F)=N3)cc2)cc1 (stereo not shown) [Example 13] | – | – | – | mortality at 0.01 % strength [2]: 100%
CC(Oc1ccc(-c2ccc(C3COC(c4c(F)cccc4F)=N3)cc2)cc1)C1=NOCCO1 (stereo not shown) [Example 20] | – | – | – | mortality at 0.1 % strength [1]: 100%; mortality at 0.01 % strength [2]: 100%
CC(COc1ccc(-c2ccc(C3COC(c4c(F)cccc4Cl)=N3)cc2)cc1)=NOCc1ccccc1 (stereo not shown) [Example 126] | – | 5.45 | 5.53 | –
CON=C(COc1ccc(-c2ccc(C3COC(c4c(F)cccc4F)=N3)cc2)cc1)c1ccc(C(F)(F)F)cc1 (stereo not shown) [Example 111] | 5.53 | – | – | –
CC(=O)C(C)Oc1ccc(-c2ccc(C3COC(c4c(F)cccc4F)=N3)cc2)cc1Cl (stereo not shown) [Example 101] | 4.15 | – | – | –
CC(C#N)Oc1ccc(-c2ccc(C3COC(c4c(F)cccc4F)=N3)cc2)cc1Cl (stereo not shown) [Example 95] | 4.06 | – | – | –
CCON=C(COc1ccc(-c2ccc(C3COC(c4c(F)cccc4F)=N3)cc2)cc1)c1ccc(Br)cc1 (stereo not shown) [Example 119] | – | – | – | log p ([3]; A isomer): 6.03; log p ([3]; B isomer): 5.72
CON=C(COc1ccc(-c2ccc(C3COC(c4c(F)cccc4F)=N3)cc2)cc1)c1ccccc1 (stereo not shown) [Example 27] | – | 4.74 | – | –
CCON=C(COc1ccc(-c2ccc(C3COC(c4c(F)cccc4F)=N3)cc2)cc1)c1ccc(C(F)F)cc1 (stereo not shown) [Example 139] | – | 5.07 | 5.31 | –
CCON=C(COc1ccc(-c2ccc(C3COC(c4c(F)cccc4F)=N3)cc2)cc1)c1ccc(Cl)c(C)c1 (stereo not shown) [Example 141] | – | 5.93 | 6.23 | –

Compound | chromatographic logP [3] | chromatographic logP ([3]; A isomer) | chromatographic logP ([3]; B isomer) | also measured
CCON=C(COc1ccc(-c2ccc(C3COC(c4c(F)cccc4F)=N3)cc2)cc1)c1ccc(CC(C)C)cc1 (stereo not shown) [Example 155] | – | 6.7 | 6.36 | –
CCON=C(COc1ccc(-c2ccc(C3COC(c4c(F)cccc4F)=N3)cc2)cc1)c1ccc(Br)cc1 (stereo not shown) [Example 118] | – | 5.65 | 5.57 | –
CC(COc1ccc(-c2ccc(C3COC(c4ccccc4Cl)=N3)cc2)cc1)=NOCc1ccccc1 (stereo not shown) [Example 137] | – | 5.55 | 5.62 | –
CCOC(CCOc1ccc(-c2ccc(C3COC(c4c(F)cccc4F)=N3)cc2)cc1Cl)OCC (stereo not shown) [Example 97] | 5.12 | – | – | –
CON=C(C)C(C)Oc1ccc(-c2ccc(C3COC(c4c(F)cccc4F)=N3)cc2)cc1Cl (stereo not shown) [Example 127] | – | 5.06 | 5.15 | –
CCON=C(COc1ccc(-c2ccc(C3COC(c4c(F)cccc4F)=N3)cc2)cc1)C(C)(C)C (stereo not shown) [Example 79] | 5.95 | – | – | –
CCON=C(COc1ccc(-c2ccc(C3COC(c4c(F)cccc4F)=N3)cc2)cc1)c1ccc(C)c(C)c1 (stereo not shown) [Example 190] | – | 5.94 | 5.62 | –
CCON=C(C)COc1ccc(-c2ccc(C3COC(c4c(F)cccc4F)=N3)cc2)cc1 (stereo not shown) [Example 25] | – | – | 4.76 | –
CC(=NOC(C)C)C(C)Oc1ccc(-c2ccc(C3COC(c4c(F)cccc4F)=N3)cc2)cc1Cl (stereo not shown) [Example 146] | – | 5.87 | 6 | –
C=CCON=C(C)C(C)Oc1ccc(-c2ccc(C3COC(c4c(F)cccc4Cl)=N3)cc2)cc1 (stereo not shown) [Example 120] | – | 5.7 | 5.81 | –
CCC(Oc1ccc(-c2ccc(C3COC(c4c(F)cccc4F)=N3)cc2)cc1)C(=O)OC (stereo not shown) [Example 19] | 4.18 | – | – | –
C=CCON=C(C)C(C)Oc1ccc(-c2ccc(C3COC(c4c(F)cccc4F)=N3)cc2)cc1Cl (stereo not shown) [Example 147] | – | 5.49 | 5.58 | –
CCOC(=O)C(CC)Oc1ccc(-c2ccc(C3COC(c4c(F)cccc4F)=N3)cc2)cc1 (stereo not shown) [Example 11] | 4.53 | – | – | –
CC(COc1ccc(-c2ccc(C3COC(c4c(F)cccc4Cl)=N3)cc2)cc1)=NOC(C)C (stereo not shown) [Example 124] | – | 5.78 | 5.88 | –
CC1(COc2ccc(-c3ccc(C4COC(c5c(F)cccc5F)=N4)cc3)cc2)OCCO1 (stereo not shown) [Example 98] | 3.77 | – | – | –
Cc1cc(C(=O)COc2ccc(-c3ccc(C4COC(c5c(F)cccc5F)=N4)cc3)cc2)ccc1Cl (stereo not shown) [Example 117] | 4.86 | – | – | –
CC(C#N)Oc1ccc(-c2ccc(C3COC(c4c(F)cccc4F)=N3)cc2)cc1 (stereo not shown) [Example 4, 2-(2,6-difluorophenyl)-4-[4'-(2-propionitriloxy)-biphenyl-4-yl]-1,3-oxazoline] | – | – | – | mortality at 0.1 % strength [1]: 100%; mortality at 0.0001 % strength [5]: 100%; mortality at 0.01 % strength [2]: 100%
